Results published in PMC8556396, “Statin-mediated disruption of Rho GTPase prenylation and activity inhibits respiratory syncytial virus infection” (Communications Biology, 2021).
Where “and” joins values, the source holds several entries; their conditions need not be identical. Equal values may be shown once. Where a name gives a salt, the structure may show the parent alone.

Legend:
Format in all cases: cell-based, Respiratory syncytial virus
RSV-GFP [1] = test: Time-of-drug addition assay; conditions: for antiviral effect by time of addition: 3.5 µM; for RSV-GFP inhibition (% of maximum): MOI 2.0, read 24 h p.i.
Method: Time-of-drug addition assays are routinely used to assess the approximate stage of viral infection affected by a drug[25]. HEp-2 cells were seeded to black, flat, microclear-bottom 96-well plates (Greiner Bio-One) and infected with RSV-GFP (MOI 2.0). […]. RSV-GFP infection rates were quantified 24 h p.i to approximately capture a single cycle of infection.

RSV-GFP [2] = test: RSV-GFP infection of HEp-2 cells, automated imaging, dose-response; conditions: for EC50: HEp-2, RSV-GFP MOI 0.5, treated 2 h post-viral exposure
Method: HEp-2 cells were seeded to black, flat, microclear-bottom 96-well plates (655096, Greiner Bio-One) at a density of 5000 cells per well and incubated at 37 °C/5% CO2 overnight. The following morning, cells were washed twice with serum-free EMEM and treated with RSV-GFP (MOI 0.5) in a minimal volume of serum-free media for 90 min under frequent agitation. Unbound virus was then removed and replaced with fresh serum-containing EMEM. All drug additions were performed 2 h post-viral exposure, unless otherwise stated. Nuclei were stained with Hoechst 33342 (H3570, Thermo Fisher Scientific) (at a final concentration of 1 µg/mL) 48 h p.i. and imaging was performed using the Cellomics ArrayScan VTI HCS Reader at ×10 magnification (SPARC BioCentre, The Hospital for Sick Children, Toronto, ON).
Automated quantification of infection rates from fluorescent images were performed in CellProfiler (v2.2.0)[86]. Major steps in the image analysis pipeline included: (1) background subtraction and smoothing, (2) segmentation of nuclei, (3) segmentation of GFP-fluorescent area, (4) object masking, and (5) measurement of nuclear number, size, and intensity. Infection rate was quantified from the ratio of nuclei within GFP-fluorescent area to the total number of nuclei (Fig. 1b). This method of analysis accounts for in vitro syncytium formation induced by RSV, whereby a single infected cell may arise from the fusion of multiple cells. Mean nuclear fluorescent intensity and size was quantified as a measure of cell viability. […]

RSV A2 = test: Quantification of infectious virus production (plaque assay); conditions: Fig 3B; atorvastatin 3.5 uM, simvastatin 1.5 uM; supernatants of RSV A2-infected HEp-2; replicate values
Method: HEp-2 cells were seeded to six-well plates at a density of 1 × 10^6 cells per well and incubated overnight at 37 °C/5% CO2. The following morning, cells were infected with RSV A2 (MOI 1.0) and treated with drugs 2 h post-viral exposure. The supernatant, containing progeny virions, was collected 48 h p.i., snap frozen, and stored at −80 °C. Quantification of infectious virus particles was performed by a traditional plaque assay. HEp-2 cells were seeded to six-well plates at a density of 1.5 × 10^6 cells per well and grown to 90% confluency. Cells were incubated with serial dilutions of the collected supernatants for 90 min at 37 °C/5% CO2 under frequent agitation. The inoculant was then removed and replaced with 4 mL of 1:1 4% FBS DMEM-F12/1% agarose. Plates were incubated for 5 days at 37 °C/5% CO2. Cells were then fixed with 10% formalin for 30 min at room temperature. After fixation and removal of agarose from each well, the cells were stained with 0.05% neutral red and plaques were quantified under a dissecting microscope.

SMILES: CC(C)c1c(C(=O)Nc2ccccc2)c(-c2ccccc2)c(-c2ccc(F)cc2)n1CC[C@@H](O)C[C@@H](O)CC(=O)O [Atorvastatin, Atorvastatin calcium salt trihydrate]
- antiviral effect by time of addition (RSV-GFP [1]; added 8–22 h p.i.): loss in antiviral effect
- antiviral effect by time of addition (RSV-GFP [1]; added 2 h pre-infection vs. 2–6 h post-infection): No difference in antiviral effect
- RSV-GFP inhibition (% of maximum) (RSV-GFP [1]; atorvastatin 3.5 µM added 2 h p.i.): 93.8741 % of maximum and 100 % of maximum and 63.7076 % of maximum and 87.4617 % of maximum
- RSV-GFP inhibition (% of maximum) (RSV-GFP [1]; atorvastatin 3.5 µM added 4 h p.i.): 79.9181 % of maximum and 67.4308 % of maximum and 95.7721 % of maximum and 95.1175 % of maximum
- RSV-GFP inhibition (% of maximum) (RSV-GFP [1]; atorvastatin 3.5 µM added 6 h p.i.): 73.0198 % of maximum and 92.897 % of maximum and 83.1029 % of maximum and 75.3925 % of maximum
- RSV-GFP inhibition (% of maximum) (RSV-GFP [1]; atorvastatin 3.5 µM added 8 h p.i.): 73.881 % of maximum and 38.0526 % of maximum and 68.6457 % of maximum and 56.4404 % of maximum
- RSV-GFP inhibition (% of maximum) (RSV-GFP [1]; atorvastatin 3.5 µM added -2 h p.i.): 95.6726 % of maximum and 68.3345 % of maximum and 91.0474 % of maximum and 75.5348 % of maximum
- EC50 (RSV-GFP [2]): 2560 nM
- EC50 (RSV-GFP [2]; human respiratory syncytial virus, HEp-2, 2 h): 2600 nM
- inhibition at 0.1 µM (RSV-GFP [2]; human respiratory syncytial virus, HEp-2, 48 h, read-out: RSV-GFP inhibition (%), log Conc (uM) -1, replicate values): 5.55%
- Virus titre (log10 PFU/mL) (RSV A2): 4.38 log10 PFU/mL and 4.4624 log10 PFU/mL and 4.176 log10 PFU/mL and 4.322 log10 PFU/mL
